Test results: patent US12252644B2, “Polarizer and image display device” (FUJIFILM Corporation, priority 2019, dated 2025)

experiment: Measurement of maximum absorption wavelength; type: physicochemical; details: solution in a good solvent, spectrophotometer UV-3150, 250 to 800 nm
Experimental: The maximum absorption wavelength (nm) of the dichroic material in the present specification is acquired from an ultraviolet visible spectrum in a wavelength range of 380 to 800 nm measured by a spectrophotometer using a solution prepared by dissolving the dichroic material in a good solvent.
The maximum absorption wavelengths of the dichroic materials used in the examples and the comparative examples were measured. The maximum absorption wavelength was acquired from the ultraviolet visible light spectrum in a wavelength range of 250 to 800 nm which was measured by a spectrophotometer (product name, “UV-3150”, manufactured by Shimadzu Corporation) using a solution in which the dichroic material was dissolved in a good solvent.

SMILES	First dichroic material maximum absorption wavelength [nm]	Second dichroic material maximum absorption wavelength [nm]	Third dichroic material maximum absorption wavelength [nm]
C=CC(=O)OCCN(CC)c1ccc(N=Nc2nc3sc(N=Nc4ccc(OCCCCCCCCCOC(C)=O)cc4)cc3s2)cc1 [Example C-1]	591	–	–
CCC(=O)OCCN(C)c1ccc(N=Nc2ccc(N=Nc3ccc(OCCCCCCCCCOC(C)=O)cc3)cc2)cc1 [Example M-1]	–	466	–
CCC(=O)OCCCCCCCCCOc1ccc(N=Nc2ccc(N=Nc3ccc(N(CC)CCOC(=O)CC)cc3)cc2)cc1 [Example M-2]	–	471	–
C=CC(=O)OCCN(CC)c1ccc(N=Nc2ccc(N=Nc3ccc(OCCCCCCCCCOC(=O)CC)cc3)cc2)cc1 [Example M-3]	–	471	–
CCC(=O)OCCCCCCCCCOc1ccc(N=Nc2ccc(N=Nc3ccc(N(CC)CCC#N)cc3)cc2)c(Cl)c1 [Example M-4]	–	460	–
CCN(CC)c1ccc(N=Nc2ccc(N=Nc3ccc(OCCCCCCCCCOC(C)=O)cc3)cc2)cc1 [Example M-5]	–	484	–
CC(=O)OCCCCCCCCCOc1ccc(N=Nc2ccc(N=Nc3ccc(N(C)CCOC(C)=O)cc3)cc2)cc1 [Example M-6]	–	465	–
C=CC(=O)OCCCCOc1ccc(N=Nc2ccc(N=Nc3ccc(N=Nc4ccc(OCCCCOC(C)=O)cc4)cc3)c(C)c2)cc1 [Example Y-1]	–	–	418
CCOC(=O)CCCCOc1ccc(N=Nc2ccc(N=Nc3ccc(N=Nc4ccc(OCCCCC(=O)OCC)cc4)cc3C)cc2)cc1 [Example Y-2]	–	–	418
